Data on 33 compounds can be found in patent US9040530B2, “1,2,4-triazine-6-carboxamide kinase inhibitors” (Portola Pharmaceuticals, Inc., priority 2012, dated 2015).

Some results are limits rather than exact numbers.

This assay deals with T1, full length active recombinant SYK enzyme (Homo sapiens, UniProt P43405).
T1 construct: full length active recombinant SYK enzyme (Millipore, Calif.); purchased Millipore
Nature of the assay: Inhibition of Syk tyrosine phosphorylation activity (LANCE TR-FRET kinase assay). The class given is biochemical. The conditions noted are these: 1 nM active SYK enzyme, 550 nM SYK-substrate, 100 μM ATP, 1 hour at room temperature. On the technique in general: In TR-FRET formats the signal depends on donor and acceptor labels being close together.

What is called IC50 is the concentration that gives 50% inhibition.

On to `Cn1ccc2cc(Nc3nc(N[C@@H]4CCCC[C@@H]4N)nnc3C(N)=O)ccc21` [Example 118, 3-(((1R,2S)-2-aminocyclohexyl)amino)-5-((1-methyl-1H-indol-5-yl)amino)-1,2,4-triazine-6-carboxamide], for which the IC50 fell in the range of 0.001 to 0.01 µM.

As to `Cn1ccc2ccc(Nc3nc(N[C@@H]4CCCC[C@@H]4N)nnc3C(N)=O)cc21` [Example 119, 3-(((1R,2S)-2-aminocyclohexyl)amino)-5-((1-methyl-1H-indol-6-yl)amino)-1,2,4-triazine-6-carboxamide], the IC50 lay in the range of 0.001 to 0.01 µM.

For the compound `Cc1cccc(Nc2nc(N[C@H](CC(C)C)C(N)=O)nnc2C(N)=O)c1` [Example 120, (R)-3-((1-amino-4-methyl-1-oxopentan-2-yl)amino)-5-(m-tolylamino)-1,2,4-triazine-6-carboxamide], the concentration for half-maximal inhibition (IC50) lay in the range of 0.01 to 0.1 µM.

For `Cc1ccc(Nc2nc(N[C@H](CC(C)C)C(N)=O)nnc2C(N)=O)cc1` [Example 121, (R)-3-((1-amino-4-methyl-1-oxopentan-2-yl)amino)-5-(p-tolylamino)-1,2,4-triazine-6-carboxamide], the IC50 lay within 0.01 to 0.1 µM.

Regarding `NC(=O)c1nnc(N[C@@H]2CCCC[C@@H]2N)nc1Nc1cnc2ccc(F)cc2c1` [Example 122, 3-(((1R,2S)-2-aminocyclohexyl)amino)-5-((6-fluoroquinolin-3-yl)amino)-1,2,4-triazine-6-carboxamide], the half-maximal inhibitory concentration (IC50) was in the range of 0.01 to 0.1 µM.

With `CC[C@@H](Nc1nnc(C(N)=O)c(Nc2cnc3ccc(F)cc3c2)n1)C(N)=O` [Example 123, (R)-3-((1-amino-1-oxobutan-2-yl)amino)-5-((6-fluoroquinolin-3-yl)amino)-1,2,4-triazine-6-carboxamide], the IC50 is 0.01 to 0.1 µM.

Turning to `NC(=O)c1nnc(N[C@@H]2CCCC[C@@H]2N)nc1Nc1cccc(OC(F)F)c1` [Example 124, 3-(((1R,2S)-2-aminocyclohexyl)amino)-5-((3-(difluoromethoxy)phenyl)amino)-1,2,4-triazine-6-carboxamide], the 50% inhibitory concentration (IC50) lay in the range of 0.001 to 0.01 µM.

Consider `COc1ccc(Nc2nc(N[C@@H]3CCCC[C@@H]3N)nnc2C(N)=O)cc1Cl` [Example 125, 3-(((1R,2S)-2-aminocyclohexyl)amino)-5-((3-chloro-4-methoxyphenyl)amino)-1,2,4-triazine-6-carboxamide], for which the IC50 is 0.001 to 0.01 µM.

Consider `NC(=O)c1nnc(N[C@@H]2CCCC[C@@H]2N)nc1Nc1ccc2cn[nH]c2c1` [Example 126, 5-((1H-indazol-6-yl)amino)-3-(((1R,2S)-2-aminocyclohexyl)amino)-1,2,4-triazine-6-carboxamide], for which the IC50 was below 0.001 µM.

As for `NC(=O)c1nnc(N[C@@H]2CCCC[C@@H]2N)nc1Nc1cc(-c2ccc(F)cc2)on1` [Example 127, 3-(((1R,2S)-2-aminocyclohexyl)amino)-5-((5-(4-fluorophenyl)isoxazol-3-yl)amino)-1,2,4-triazine-6-carboxamide], the IC50 was in the range of 0.1 to 1 µM.

For the compound `CC[C@@H](Nc1nnc(C(N)=O)c(Nc2ccc3cn[nH]c3c2)n1)C(N)=O` [Example 128, (R)-5-((1H-indazol-6-yl)amino)-3-((1-amino-1-oxobutan-2-yl)amino)-1,2,4-triazine-6-carboxamide], the IC50 lay within 0.001 to 0.01 µM.

In the case of `Cn1ccc2c(Nc3nc(N[C@@H]4CCCC[C@@H]4N)nnc3C(N)=O)ccnc21` [Example 129, 3-(((1R,2S)-2-aminocyclohexyl)amino)-5-((1-methyl-1H-pyrrolo[2,3-b]pyridin-4-yl)amino)-1,2,4-triazine-6-carboxamide], the half-inhibitory concentration (IC50) was below 0.001 µM.

In the case of `NC(=O)c1nnc(N[C@@H]2CCCC(F)(F)[C@@H]2N)nc1Nc1cccc(-c2ncco2)c1` [Example 130, 3-(((1R,2R)-2-amino-3,3-difluorocyclohexyl)amino)-5-((3-(oxazol-2-yl)phenyl)amino)-1,2,4-triazine-6-carboxamide], the IC50 is above 1 µM.

As to `NC(=O)c1nnc(N[C@@H]2CCCC[C@@H]2N)nc1Nc1ccc(-c2ncco2)cc1` [Example 131, 3-(((1R,2S)-2-aminocyclohexyl)amino)-5-((4-(oxazol-2-yl)phenyl)amino)-1,2,4-triazine-6-carboxamide], the IC50 is 0.001 to 0.01 µM.

With `NC(=O)c1nnc(N[C@@H]2CCCC(F)(F)[C@@H]2N)nc1Nc1ccc(-c2ncco2)cc1` [Example 132, 3-(((1R,2R)-2-amino-3,3-difluorocyclohexyl)amino)-5-((4-(oxazol-2-yl)phenyl)amino)-1,2,4-triazine-6-carboxamide], the IC50 fell in the range of 0.01 to 0.1 µM.

Consider `NC(=O)c1nnc(N[C@@H]2CCCC[C@@H]2N)nc1Nc1cncs1` [Example 133, 3-(((1R,2S)-2-aminocyclohexyl)amino)-5-(thiazol-5-ylamino)-1,2,4-triazine-6-carboxamide], for which the half-inhibitory concentration (IC50) lay within 0.01 to 0.1 µM.

Turning to `CC[C@@H](Nc1nnc(C(N)=O)c(Nc2ccc(C(F)(F)F)c(C(F)(F)F)c2)n1)C(N)=O` [Example 135, (R)-3-((1-amino-1-oxobutan-2-yl)amino)-5-((3,4-bis(trifluoromethyl)phenyl)amino)-1,2,4-triazine-6-carboxamide], the half-inhibitory concentration (IC50) lay in the range of 0.01 to 0.1 µM.

Regarding `Cn1cc(C#N)c2ccc(Nc3nc(N[C@@H]4CCCC[C@@H]4N)nnc3C(N)=O)cc21` [Example 136, 3-(((1R,2S)-2-aminocyclohexyl)amino)-5-((3-cyano-1-methyl-1H-indol-6-yl)amino)-1,2,4-triazine-6-carboxamide], the IC50 was 0.001 to 0.01 µM.

As to `NC(=O)c1nnc(N[C@@H]2CCCC[C@@H]2N)nc1Nc1nc(-c2ccccc2)no1` [Example 138, 3-(((1R,2S)-2-aminocyclohexyl)amino)-5-((3-phenyl-1,2,4-oxadiazol-5-yl)amino)-1,2,4-triazine-6-carboxamide], the IC50 is above 1 µM.

For the compound `Cn1ncc2c(Nc3nc(N[C@@H]4CCOC[C@@H]4N)nnc3C(N)=O)cccc21` [Example 139, 3-(((3R,4R)-3-aminotetrahydro-2H-pyran-4-yl)amino)-5-((1-methyl-1H-indazol-4-yl)amino)-1,2,4-triazine-6-carboxamide], the half-maximal inhibitory concentration (IC50) lay within 0.01 to 0.1 µM.

Consider `CC[C@@H](Nc1nnc(C(N)=O)c(Nc2cc(C)ns2)n1)C(N)=O` [Example 140, (R)-3-((1-amino-1-oxobutan-2-yl)amino)-5-((3-methylisothiazol-5-yl)amino)-1,2,4-triazine-6-carboxamide], for which the concentration for half-maximal inhibition (IC50) lay within 0.01 to 0.1 µM.

Consider `Cc1cc(Nc2nc(N[C@H](CC3CC3)C(N)=O)nnc2C(N)=O)sn1` [Example 141, (R)-3-((1-amino-3-cyclopropyl-1-oxopropan-2-yl)amino)-5-((3-methylisothiazol-5-yl)amino)-1,2,4-triazine-6-carboxamide], for which the IC50 lay in the range of 0.01 to 0.1 µM.

On to `Cc1cc(Nc2nc(N[C@@H]3CCOC[C@@H]3N)nnc2C(N)=O)sn1` [Example 142, 3-(((3R,4R)-3-aminotetrahydro-2H-pyran-4-yl)amino)-5-((3-methylisothiazol-5-yl)amino)-1,2,4-triazine-6-carboxamide], for which the IC50 was in the range of 0.01 to 0.1 µM.

On to `Cc1ccc(Nc2nc(N[C@H](CC(F)F)C(N)=O)nnc2C(N)=O)cc1` [Example 143, (R)-3-((1-amino-4,4-difluoro-1-oxobutan-2-yl)amino)-5-(p-tolylamino)-1,2,4-triazine-6-carboxamide], for which the IC50 lay within 0.01 to 0.1 µM.

On to `Cc1ccc(Nc2nc(N[C@H](CC(F)(F)F)C(N)=O)nnc2C(N)=O)cc1` [Example 144, (R)-3-((1-amino-4,4,4-trifluoro-1-oxobutan-2-yl)amino)-5-(p-tolylamino)-1,2,4-triazine-6-carboxamide], for which the half-maximal inhibitory concentration (IC50) is 0.01 to 0.1 µM.

Consider `Cc1ccc(Nc2nc(N[C@@H]3CCOC[C@@H]3N)nnc2C(N)=O)cc1C` [Example 145, 3-(((3R,4R)-3-aminotetrahydro-2H-pyran-4-yl)amino)-5-((3,4-dimethylphenyl)amino)-1,2,4-triazine-6-carboxamide], for which the IC50 lay within 0.001 to 0.01 µM.

On to `CC[C@@H](Nc1nnc(C(N)=O)c(Nc2cnc3cccnc3c2)n1)C(N)=O` [Example 146, (R)-5-((1,5-naphthyridin-3-yl)amino)-3-((1-amino-1-oxobutan-2-yl)amino)-1,2,4-triazine-6-carboxamide], for which the IC50 lay within 0.1 to 1 µM.

For `Cn1cc(C#N)c2ccc(Nc3nc(N[C@H](CC(F)F)C(N)=O)nnc3C(N)=O)cc21` [Example 147, (R)-3-((1-amino-4,4-difluoro-1-oxobutan-2-yl)amino)-5-((3-cyano-1-methyl-1H-indol-6-yl)amino)-1,2,4-triazine-6-carboxamide], the half-inhibitory concentration (IC50) lay in the range of 0.001 to 0.01 µM.

For `Cn1ccc2c(Nc3nc(N[C@@H]4CCCC[C@@H]4N)nnc3C(N)=O)cncc21` [Example 148, 3-(((1R,2S)-2-aminocyclohexyl)amino)-5-((1-methyl-1H-pyrrolo[2,3-c]pyridin-4-yl)amino)-1,2,4-triazine-6-carboxamide], the half-maximal inhibitory concentration (IC50) was in the range of 0.001 to 0.01 µM.

Take `NC(=O)c1nnc(N[C@H](CC(F)(F)F)C(N)=O)nc1Nc1ccc2ncccc2c1` [Example 149, (R)-3-((1-amino-4,4,4-trifluoro-1-oxobutan-2-yl)amino)-5-(quinolin-6-ylamino)-1,2,4-triazine-6-carboxamide]: the IC50 lay in the range of 0.001 to 0.01 µM.

In the case of `NC(=O)c1nnc(N[C@H](CC(F)F)C(N)=O)nc1Nc1ccc2ncccc2c1` [Example 150, (R)-3-((1-amino-4,4-difluoro-1-oxobutan-2-yl)amino)-5-(quinolin-6-ylamino)-1,2,4-triazine-6-carboxamide], the IC50 was 0.001 to 0.01 µM.

As for `Cn1ccc2cc(Nc3nc(N[C@@H]4CCCC(F)(F)[C@@H]4N)nnc3C(N)=O)cnc21` [Example 151, 3-(((1R,2R)-2-amino-3,3-difluorocyclohexyl)amino)-5-((1-methyl-1H-pyrrolo[2,3-b]pyridin-5-yl)amino)-1,2,4-triazine-6-carboxamide], the IC50 was 0.1 to 1 µM.

For `CC[C@@H](Nc1nnc(C(N)=O)c(Nc2cnc3c(ccn3C)c2)n1)C(N)=O` [Example 152, (R)-3-((1-amino-1-oxobutan-2-yl)amino)-5-((1-methyl-1H-pyrrolo[2,3-b]pyridin-5-yl)amino)-1,2,4-triazine-6-carboxamide], the IC50 is 0.01 to 0.1 µM.
